According to article PMC9016803, “Mitochondria-targeted half-sandwich iridium(III)-Cp*-arylimidazophenanthroline complexes as antiproliferative and bioimaging agents against triple negative breast cancer cells MDA-MB-468” (RSC Advances, 2022):
pIC50: −log10 of the molar value.

Tests used:
MDA-MB-468 cells [1] = assay: Mitochondrial membrane potential, JC-1 staining, flow cytometry; assay type: cell-based; details: positive control
Procedure: The cells treated with the mitochondrial uncoupler CCCP (carbonyl cyanide m-chlorophenylhydrazone), which mediates the dissipation of mitochondrial membrane potential, served as positive control for the detection of mitochondrial dysfunction. […] Unstained control represented in Fig. 10A has been used for gating purposes. […]

MDA-MB-468 cells [2] = assay: ROS generation, DCFDA staining; assay type: cell-based; details: positive control
Procedure: Our results indicated a dose dependent increase in ROS production in the MDA-MB-468 cells treated with IrL1 concentrations 1 μM and 3 μM. The extent of ROS production is indicated by the 2′,7′-dichlorofluorescein (DCF) formed by the deacetylation and subsequent oxidation of 2′,7′-dichlorofluorescin diacetate (DCFDA) through cellular esterases and ROS. […] ROS production was absent in untreated control. However, in the positive control, treated with H2O2, ROS production was high which is ∼99% (Fig. 11).
Colocalization study and ROS generation studies were performed using live cell lines in their log phase.

MDA-MB-468 cells [3] = assay: MTT in vitro cytotoxicity assay, triple negative breast cancer cells; assay type: cell-based; details: MDA-MB-468, MTT, 48 h
Procedure: The in vitro cytotoxicity of complexes IrL1–IrL5 and cisplatin were investigated using the typical 3-(4,5-dimethylthiazol-2-yl)-2,5-diphenyltetrazolium bromide (MTT) assay protocol against a panel of triple negative cancer cell line MDA-MB-468. The cells were initially incubated with the all test compounds at concentrations ranging from 0.5–50 μM for 48 h in vitro.
Cytotoxicity study of all the synthesized compounds against triple negative breast cancer cells MDA-MB-468 and immortalized human keratinocyte cell line HaCaT were done with a drug incubation period of 48 h by following standard procedure that were mentioned in ESI. ^† Preliminary studies were done to understand the mode of action of the complex to induce cytotoxicity using flow cytometric methods.
For doing the cell culture the cells were retained in DMEM media (Gibco), added with 10% fetal bovine serum (Himedia, India), 1% penicillin and streptomycin and 1% of Glutmax (Gibco, Thermo Scientific, USA) at 37°C in 5% CO2. When the cells attained 70%-80% confluency they were trypsinized using 0.25% trypsin-EDTA (Thermo Fisher Scientific, […]
In vitro cytotoxicity study was measured by standard MTT assay protocol.1 First the prepared complexes (IrL1-IrL5) were dissolved in 0.1% DMSO followed by dilution with DMEM medium. One cancer cell lines i.e. triple negative breast cancer cells (MDA-MB-468) and one normal cell line i.e. immortalized human keratinocyte cell line (HaCaT) were used for this assay. Approximately 1×10^4 cells per well were cultured in 100 μl of a growth medium in 96-well plates and then incubated under 5% CO2 atmosphere at 37°C temperature. Then the incubated cells were treated with different concentrations of the complexes in the volume of […]. The cisplatin was taken as standard positive control for this experiment. The Cells which were in the control wells, also engaged the same volume of medium containing 0.1% DMSO. After 48 h, the medium was superfluous and cell cultures were again incubated with 100 μL of MTT reagent (1 mg/ml) for 5 h at 37 °C. Then the resultant suspension was kept on micro vibrator for 10 min and the absorbance was recorded at λ = 570 nm in ELISA plate reader. The experiment was also performed in triplicate. The data were represented as the growth inhibition percentage i.e. % growth inhibition = 100 − [(AD × 100)/AB], where AD, measured absorbance in wells which contain samples and AB, measured absorbance for blank wells (cells with a medium and a vehicle). […]

Solubility study = assay type: physicochemical; details: DMSO-10% DMEM medium (1 : 99 v/v, comparable to cell media)
Procedure: (§1) Both hydrophilicity and lipophilicity studies were performed to determine the tumour-inhibiting potential of the metal complexes. These complexes were highly soluble in DMSO and moderately soluble in H2O, MeOH, EtOH and CH3CN. […] The lipophilicity of these complexes was determined by performing an n-octanol/water partition coefficient (log Po/w, where Po/w = the octanol/water partition coefficient) study using the shake flask method (Table 1).[24] The experimental log Po/w values of these complexes were determined to be in the range of 0.27–0.34 (Table 1). […] This change in the electrolytic behaviour of the complexes from 1 : 1 to 1 : 2 can be attributed to the dissociation of the Ir–Cl bond and subsequent aquation of the complexes.

[4] = n-Octanol/water partition coefficient, shake flask method; assay type: physicochemical
Procedure: as §1, with “the complexes. […]” for “the complexes.”
n-Octanol–water partition coefficient (log P o/w)9
The log Po/w of the iridium complexes were adhering to shake flask method using the previously published procedure. A known amount of each complex (IrL1-IrL5) was suspended in water (pre-saturated with n-octanol) and shaken for 48 h on an orbital shaker.
To allow the phase separation, the solution was centrifuged for 10 min at 3000 rpm. To obtain the partition coefficient, different ratios (0.5: 1, 1: 1, and 2: 1) of the saturated solutions were shaken with pre-saturated n-octanol for 20 min on an orbital shaker and followed the same procedure. Aliquots of the aqueous and octanol layers were pipetted out separately and the absorbances were measured with UV-Vis spectrophotometer using proper dilution. Each set was performed in triplicate, concentration of the substances in each layer was calculated using the respective molar extinction coefficients and the partition coefficient (log P o/w) values were obtained from the ratio.

Row | Compound | Solubility (Solubility study) | log P (n-octanol/water partition coefficient) [4] | cells retaining healthy mitochondria (JC-1 aggregates) (MDA-MB-468 cells [1]) | cells with damaged mitochondria (JC-1 monomers) (MDA-MB-468 cells [1]) | ROS production (MDA-MB-468 cells [2]) | pIC50 (MDA-MB-468 cells [3])
1 | N#CC(C#N)=NNc1cccc(Cl)c1 [CCCP, carbonyl cyanide m-chlorophenylhydrazone, reference compound] | – | – | ~20% | ~79% | – | –
2 | OO [H2O2, reference compound] | – | – | – | – | ~99% | –
3 | [Iridium(III)-Cp*-2-((3aR,7aR)-3a,7a-dihydro-1H-indol-3-yl)-1H-imidazo[4,5-f][1,10]phenanthroline]PF6 [IrL4] | 900 µM | 0.02 ± 0.05 | – | – | – | 5.28
4 | [Iridium(III)-Cp*-2-((3aR,7aR)-3a,7a-dihydrobenzo[b]thiophen-2-yl)-1H-imidazo[4,5-f][1,10]phenanthroline]PF6 [IrL5] | 700 µM | 0.29 ± 0.08 | – | – | – | 5.36

The next lines start with results.

Row | Solubility (Solubility study) | log P (n-octanol/water partition coefficient) [4] | Compound | cells retaining healthy mitochondria (JC-1 aggregates) (MDA-MB-468 cells [1]) | cells with damaged mitochondria (JC-1 monomers) (MDA-MB-468 cells [1]) | ROS production (MDA-MB-468 cells [2]) | pIC50 (MDA-MB-468 cells [3])
5 | 600 µM | 0.34 ± 0.07 | [Iridium(III)-Cp*-2-(anthracen-1-yl)-1H-imidazo[4,5-f][1,10]phenanthroline]PF6 [IrL2] | – | – | – | 4.69
6 | 1200 µM | −0.23 ± 0.2 | [Iridium(III)-Cp*-3-(1H-imidazo[4,5-f][1,10]phenanthrolin-2-yl)-4H-chromen-4-one]PF6 [IrL3] | – | – | – | 4.69
